Laboratory results published in patent US9938235B2, “Compounds with neural protective effect, and preparation and use thereof” (GUANGZHOU MAGPIE PHARMACEUTICAL CO., LTD., priority 2014, dated 2018).

Assays:
[1] = tested on: MPTP-induced abnormal behavior of mice of Parkinson's disease (PD) model; test: Behavioral test in MPTP-induced mice of Parkinson's disease (PD) model; type: in vivo, C57BL/6J mice; details: MT-019 25, 75, 225 mg/kg once a day for seven days; behavioral test on day 7 of administration
Description: (§1) Forty of C57BL/6J mice (male, 6 to 7 week-old) were feed for 7 days to adapt to the environment. On the day 8, animal model was started to prepare. 20 mg/kg MPTP was given via intraperitoneal injection for the model group and drug group, the injection was made every 2 hours, for four times in total, and an acute PD model was established. The equivalent amount of saline was given to the normal control group. From the day 2 of model establishment, the compound MT-019 and the positive control drug Rasagiline (1 mg/kg) were given. The doses of MT-019 were 25, 75, 225 mg/kg, respectively. The drug was given once a day, and a equal amount of saline was given to the normal control group and the MPTP model group, for seven days consecutively. On the day 7 of drug administration, behavioral test is performed.

TH neurons in SNpc area = test: TH neuron immunohistochemistry, SNpc area, MPTP-induced PD mice; type: in vivo, C57BL/6J mice
Description: as §1
After the above-mentioned animal model was set up and drug was given to the mice as described in Example 86, materials was taken at 12 hours after the last drug administration in the steps shown below: (1) With 10% chloral hydrate anesthesia in mice, the mice were fixed on an operating table, the chest thereof was quickly open; (2) […], […] the left ventricle, the right auricle was cut open, and a blood buffer was delivered to the heart from an infusion bottle with a volume of about 50 mL per mouse; (3) after the lavage fluid became colorless, the blood buffer was replaced with 4% paraformaldehyde solution in perfusion until the tail and limbs of the mice became stiff, wherein the infusion volume was about 100 mL per mouse; (4) the brain was taken by making the mice beheaded on a flat glass board, and redundant parts were carefully removed. The midbrain was placed and fixed in a centrifuge tube containing freshly prepared 4% paraformaldehydea. The samples were cut into paraffin sections through the process of dehydrating, transparent, paraffining and embedding steps. Each of the samples was cut with paraffin slicing machine into four microns slices. After fully unfold in water bath, the slices were put on glass plates and numbered. […]

C#CCNC(C)c1ccc(/C=[N+](\[O-])C(C)(C)C)c(OC(=O)N(C)CC)c1 (stereo not shown) [MT-019]
recovery effect to MPTP-induced abnormal behavior [1]: had recory effect
protective effect to dopaminergic neurons compared with positive control Rasagiline (TH neurons in SNpc area; 25 mg/kg MT-019 versus Rasagiline 1 mg/kg): equivalent to that of the positive control drug Rasagiline 1 mg/kg
protective effect on SNpc area TH neurons (positive cell count in substantia nigra) (TH neurons in SNpc area; MT-019 25, 75, 225 mg/kg once a day for seven days, material taken 12 hours after last administration): had protective effect
dose dependence of protective effect on TH neurons (TH neurons in SNpc area; doses 25, 75, 225 mg/kg): stronger effect was indicated with higher doses
